Source: US7914821B2, “Pharmaceutical composition for prevention and/or treatment of bone loss” (KO DA Pharmaceuticals Co., Ltd., priority 2008, dated 2011)

Legend:
Format in all cases: cell-based, rat
BMP-2 gene = BMP-2 gene expression (RT-PCR); settings: for BMP-2 mRNA level, dependence on concentration: 0.3, 1, 3, 10 μM, FIG. 9A; for BMP-2 mRNA level, dependence on treatment time: 1, 3, 6, 12 hrs, FIG. 9B
Description: (§1) Rat primary osteoblast was isolated from the parietal bone of gestation day 18 embryos of Sprague-Dawley rats. After being slaughtered, the embryo rats were obtained from the uteruses of the rats, and calvarium was isolated from the embryo rats. Parietal bone was cut from the calvarium and digested by 0.1% collagenase for 20 minutes to release the bone cells from the bone tissue. The digestion step was repeated five times. The collected bone cells were cultured in α-MEM containing 1% penicillin-streptomycin and 10% FBS in a humidified atmosphere of 5 percent carbon dioxide. When cells were attached and confluence, they were sub-cultured, which was called “passage 2 (P2)”. The passage was for analogizing. 2 to 5 passage cells were used for the experiments.
Bone cells were cultured in 6-well Plate and cultured with 0.3, 1, 3, and 10 μM of imperatorin and bergapten for 1, 3, 6, and 12 hrs, respectively. After treatment, the cells were lysed with TRIzol reagent at room temperature for 5 minutes, and then collected in a centrifuge tube. 0.5 ml of chloroform was added to the centrifuge tube. After the addition of chloroform, the centrifuge tube was well mixed, and centrifuged at 14000×g for 15 minutes at room temperature to obtain a supernatant. The supernatant was mixed with isopropanol (0.25 ml) and then centrifuged at 14000×g at room temperature for 15 minutes to obtain a precipitated RNA. RNA was washed with 75% alcohol, centrifuged at 14000×g for 10 minutes, and dried to give a RNA pellet. The RNA pellet was dissolved in diethyl pyrocarbonate (DEPC) solution and then quantitated by measurement of OD260/280. BMP-2 gene expression (BMP-2 mRNA level) was detected by RT-PCR using Supperscript™ III reverstranscriptase and […] (Applied Biosystems). The BMP-2 mRNA level in the control group which was treated with 0.1% DMSO was defined as 100%.

Bone cells [1] = assay: Collagen secretion in bone cells; settings: for collagen secretion in the bone cells: 0.3, 1, 3, 10 μM, FIG. 8B; for increase of collagen content / collagen synthesis: 'at least' figure
Description: as §1
Bone cells were treated with 0.3, 1, 3, and 10 μM of imperatorin and bergapten, respectively. After treatment, the cells were lysed in 6N HCl at 116° C. for 16 hrs, and dried in a vacuum. The resultant residue was dissolved in an equal volume of water, and then absorbance was measured at […]. The collagen secretion in the control group which was treated with 0.1% DMSO was defined as 100%. Referring to FIG. 8B, imperatorin and bergapten both increased the collagen secretion in the bone cells

p38 = assay: Phosphorylation of p38 (western blot); settings: 10 μM, 1, 3, 6, 12, 24 hrs; FIG. 10
Description: as §1
Bone cells was cultured in 6-well plate and treated with 10 μM of imperatorin and bergapten for 1, 3, 6, 12, and 24 hrs, respectively. […] Following incubation with the secondary antibody, the membrane was washed three times with PBST, and detected by an […] chemiluminescence using an ECL blotting substrate according to the manufacturer's instructions. […]

Bone cells [2] = assay: Cell viability (MTT); settings: 0.3, 1, 3, 10 μM, 48 hrs, FIG. 7A
Description: as §1
Bone cells were cultured in 96-well plate and treated with 0.3, 1, 3, and 10 μM of imperatorin and bergapten for 48 hrs, respectively. After treatment, the cells were reacted with MTT solution (0.5 mg/ml) at 37° C. for 30 minutes, lysed in 100 μl DMSO, and then absorbance was measured at […]. The cell viability in the control group which was treated with 0.1% DMSO was defined as 100%.

Structure (SMILES) | BMP-2 mRNA level, dependence on concentration (BMP-2 gene) | BMP-2 mRNA level, dependence on treatment time (BMP-2 gene) | collagen secretion in the bone cells (Bone cells [1]) | increase of collagen content / collagen synthesis (Bone cells [1]) | phosphorylation of p38 (p38) | cell viability (Bone cells [2])
COc1c2ccoc2cc2oc(=O)ccc12 [bergapten] | increased according to the increase of the concentration | increased according to the increase of the treatment time | increased | at least 100% | induced | did not suppress
CC(C)=CCOc1c2occc2cc2ccc(=O)oc12 [imperatorin] | increased according to the increase of the concentration | increased according to the increase of the treatment time | increased | at least 102.0% | induced | –
